Read-outs that look alike come from different tables or passages of the source.
Tests used:
Assay in all cases: Test A postemergence
Assay type in all cases: in vivo
[1] = tested on: barnyardgrass (Echinochloa crus-galli); settings: Echinochloa crus-galli, post-emergence, 240 h; for pest or weed control at 125 g/ha: 125 g ai/ha; for pest or weed control at 500 g/ha: 500 g ai/ha
Outline: (§1)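 Greenhouse, ~10 d after spray; visual injury vs untreated controls, 0 = no effect, 100 = complete control. Preemergence: directed soil spray over planted seeds. Postemergence: plants 2–10 cm, 1–2 leaf stage. Loam/sand blend. Compound in non-phytotoxic solvent with surfactant.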

[2] = tested on: blackgrass (Alopecurus myosuroides); settings: Alopecurus myosuroides, post-emergence, 240 h; for pest or weed control at 125 g/ha: 125 g ai/ha; for pest or weed control at 500 g/ha: 500 g ai/ha
Outline: as §1

[3] = tested on: giant foxtail (Setaria faberii); settings: Setaria faberi, post-emergence, 240 h; for pest or weed control at 125 g/ha: 125 g ai/ha; for pest or weed control at 500 g/ha: 500 g ai/ha
Outline: as §1

[4] = tested on: ragweed (common ragweed, Ambrosia elatior); settings: Ambrosia artemisiifolia, post-emergence, 240 h; for pest or weed control at 125 g/ha: 125 g ai/ha; for pest or weed control at 500 g/ha: 500 g ai/ha
Outline: as §1

[5] = tested on: ryegrass, Italian (Italian ryegrass, Lolium multiflorum); settings: Lolium multiflorum, post-emergence, 240 h; for pest or weed control at 125 g/ha: 125 g ai/ha; for pest or weed control at 500 g/ha: 500 g ai/ha
Outline: as §1

[6] = tested on: wheat (Triticum aestivum); settings: Triticum aestivum, post-emergence, 240 h; for plant injury at 125 g/ha: 125 g ai/ha; for plant injury at 500 g/ha: 500 g ai/ha
Outline: as §1

[7] = Postemergence, visual rating about 10 d after treatment, read-out: Barnyardgrass plant response rating (0 to 100 scale, 0 no effect, 100 complete control)
[8] = Postemergence, visual injury, 0 to 100 scale (0 no effect, 100 complete control), approx. 10 d, read-out: Plant response rating, Barnyardgrass
[9] = Postemergence, visual rating about 10 d after treatment, read-out: Blackgrass plant response rating (0 to 100 scale)
[10] = Postemergence, visual injury, 0 to 100 scale (0 no effect, 100 complete control), approx. 10 d, read-out: Plant response rating, Blackgrass
[11] = Postemergence, visual rating about 10 d after treatment, read-out: Foxtail, Giant plant response rating (0 to 100 scale)
[12] = Postemergence, visual injury, 0 to 100 scale (0 no effect, 100 complete control), approx. 10 d, read-out: Plant response rating, Foxtail, Giant
[13] = Postemergence, visual rating about 10 d after treatment, read-out: Ragweed plant response rating (0 to 100 scale)
[14] = Postemergence, visual injury, 0 to 100 scale (0 no effect, 100 complete control), approx. 10 d, read-out: Plant response rating, Ragweed
[15] = Postemergence, visual rating about 10 d after treatment, read-out: Ryegrass, Italian plant response rating (0 to 100 scale)
[16] = Postemergence, visual injury, 0 to 100 scale (0 no effect, 100 complete control), approx. 10 d, read-out: Plant response rating, Ryegrass, Italian
[17] = Postemergence, visual rating about 10 d after treatment, read-out: Wheat plant response rating (0 to 100 scale)
[18] = Postemergence, visual injury, 0 to 100 scale (0 no effect, 100 complete control), approx. 10 d, read-out: Plant response rating, Wheat

How did the pest or weed control at 125 g/ha ([1]; postemergence, visual injury on 0 to 100 scale (0 no effect, 100 complete control), approx. 10 d, read-out: Barnyardgrass plant response rating) turn out when `CN1C[C@H](c2csc3ccccc23)[C@@H](C(=O)Nc2ccccc2F)C1=O` [Compound 1114] was run?
Its pest or weed control at 125 g/ha is 80%.

What about the pest or weed control at 500 g/ha ([1]; postemergence, 0 to 100 scale, 0 is no effect, 100 is complete control, read-out: Barnyardgrass plant response rating) of the same molecule?
Its pest or weed control at 500 g/ha is 90%.

What about the pest or weed control at 125 g/ha ([2]; postemergence, visual injury on 0 to 100 scale (0 no effect, 100 complete control), approx. 10 d, read-out: Blackgrass plant response rating) of the same molecule?
Its pest or weed control at 125 g/ha is 20%.

What about the pest or weed control at 500 g/ha ([2]; postemergence, 0 to 100 scale, 0 is no effect, 100 is complete control, read-out: Blackgrass plant response rating) of the same molecule?
Its pest or weed control at 500 g/ha is 60%.

What about the pest or weed control at 125 g/ha ([3]; postemergence, visual injury on 0 to 100 scale (0 no effect, 100 complete control), approx. 10 d, read-out: Foxtail, Giant plant response rating) of the same molecule?
Its pest or weed control at 125 g/ha is 90%.

And the pest or weed control at 500 g/ha ([3]; postemergence, 0 to 100 scale, 0 is no effect, 100 is complete control, read-out: Foxtail, Giant plant response rating)?
Its pest or weed control at 500 g/ha is 90%.

And the pest or weed control at 125 g/ha ([4]; postemergence, visual injury on 0 to 100 scale (0 no effect, 100 complete control), approx. 10 d, read-out: Ragweed plant response rating)?
The pest or weed control at 125 g/ha was 0%.

And the pest or weed control at 500 g/ha ([4]; postemergence, 0 to 100 scale, 0 is no effect, 100 is complete control, read-out: Ragweed plant response rating)?
Its pest or weed control at 500 g/ha is 0%.

And the pest or weed control at 125 g/ha ([5]; postemergence, visual injury on 0 to 100 scale (0 no effect, 100 complete control), approx. 10 d, read-out: Ryegrass, Italian plant response rating)?
The pest or weed control at 125 g/ha was 0%.

And the pest or weed control at 500 g/ha ([5]; postemergence, 0 to 100 scale, 0 is no effect, 100 is complete control, read-out: Ryegrass, Italian plant response rating)?
Its pest or weed control at 500 g/ha is 40%.

What about the plant injury at 125 g/ha ([6]; postemergence, visual injury on 0 to 100 scale (0 no effect, 100 complete control), approx. 10 d, read-out: Wheat plant response rating) of the same molecule?
The plant injury at 125 g/ha was 0%.

And the plant injury at 500 g/ha ([6]; postemergence, 0 to 100 scale, 0 is no effect, 100 is complete control, read-out: Wheat plant response rating)?
Its plant injury at 500 g/ha is 30%.

Which results are given for `CN1CC[C@H](c2cccc(OC(F)(F)F)c2)[C@@H](C(=O)Nc2ccccc2C(F)(F)F)C1=O` [Compound 806]?
pest or weed control at 125 g/ha ([1]; postemergence, visual injury rating after approximately 10 d, read-out: Barnyardgrass plant response rating (0 to 100 scale, 0 no effect, 100 complete control)): 0%; pest or weed control at 31 g/ha ([1]; Postemergence, 31 g ai/ha, visual injury after approx. 10 d, 0 to 100 scale, 0 no effect, 100 complete control, read-out: Plant response rating, Barnyardgrass): 0%; pest or weed control at 125 g/ha ([2]; postemergence, visual injury rating after approximately 10 d, read-out: Blackgrass plant response rating (0 to 100 scale, 0 no effect, 100 complete control)): 0%; pest or weed control at 31 g/ha ([2]; Postemergence, 31 g ai/ha, visual injury after approx. 10 d, 0 to 100 scale, 0 no effect, 100 complete control, read-out: Plant response rating, Blackgrass): 0%; pest or weed control at 125 g/ha ([3]; postemergence, visual injury rating after approximately 10 d, read-out: Foxtail, Giant plant response rating (0 to 100 scale, 0 no effect, 100 complete control)): 0%; pest or weed control at 31 g/ha ([3]; Postemergence, 31 g ai/ha, visual injury after approx. 10 d, 0 to 100 scale, 0 no effect, 100 complete control, read-out: Plant response rating, Foxtail, Giant): 0%; pest or weed control at 125 g/ha ([4]; postemergence, visual injury rating after approximately 10 d, read-out: Ragweed plant response rating (0 to 100 scale, 0 no effect, 100 complete control)): 0%; pest or weed control at 31 g/ha ([4]; Postemergence, 31 g ai/ha, visual injury after approx. 10 d, 0 to 100 scale, 0 no effect, 100 complete control, read-out: Plant response rating, Ragweed): 0%; pest or weed control at 125 g/ha ([5]; postemergence, visual injury rating after approximately 10 d, read-out: Ryegrass, Italian plant response rating (0 to 100 scale, 0 no effect, 100 complete control)): 0%; pest or weed control at 31 g/ha ([5]; Postemergence, 31 g ai/ha, visual injury after approx. 10 d, 0 to 100 scale, 0 no effect, 100 complete control, read-out: Plant response rating, Ryegrass, Italian): 0%; plant injury at 125 g/ha ([6]; postemergence, visual injury rating after approximately 10 d, read-out: Wheat plant response rating (0 to 100 scale, 0 no effect, 100 complete control)): 0%; plant injury at 31 g/ha ([6]; Postemergence, 31 g ai/ha, visual injury after approx. 10 d, 0 to 100 scale, 0 no effect, 100 complete control, read-out: Plant response rating, Wheat): 0%

For `CN1C[C@H](c2cccc(C(C)(F)F)c2)[C@@H](C(=O)Nc2ccc(F)cc2F)C1=O` [Compound 1319], which pest or weed control at 125 g/ha [1, 7] is on record?
The pest or weed control at 125 g/ha was 90%.

And the pest or weed control at 500 g/ha [1, 8]?
The pest or weed control at 500 g/ha was 90%.

And the pest or weed control at 125 g/ha [2, 9]?
The pest or weed control at 125 g/ha was 70%.

What about the pest or weed control at 500 g/ha [2, 10] of the same molecule?
Its pest or weed control at 500 g/ha is 80%.

And the pest or weed control at 125 g/ha [3, 11]?
Its pest or weed control at 125 g/ha is 90%.

And the pest or weed control at 500 g/ha [3, 12]?
The pest or weed control at 500 g/ha was 90%.

And the pest or weed control at 125 g/ha [4, 13]?
The pest or weed control at 125 g/ha was 0%.

What about the pest or weed control at 500 g/ha [4, 14] of the same molecule?
The pest or weed control at 500 g/ha was 0%.

And the pest or weed control at 125 g/ha [5, 15]?
The pest or weed control at 125 g/ha was 40%.

And the pest or weed control at 500 g/ha [5, 16]?
The pest or weed control at 500 g/ha was 60%.

And the plant injury at 125 g/ha [6, 17]?
The plant injury at 125 g/ha was 60%.

What about the plant injury at 500 g/ha [6, 18] of the same molecule?
Its plant injury at 500 g/ha is 60%.

For `Cc1c(F)ccc([C@H]2CNC(=O)[C@@H]2C(=O)Nc2ccccc2F)c1F` [Compound 1326], which pest or weed control at 125 g/ha [1, 7] is on record?
The pest or weed control at 125 g/ha was 70%.

What about the pest or weed control at 500 g/ha [1, 8] of the same molecule?
The pest or weed control at 500 g/ha was 90%.

And the pest or weed control at 125 g/ha [2, 9]?
Its pest or weed control at 125 g/ha is 0%.

And the pest or weed control at 500 g/ha [2, 10]?
Its pest or weed control at 500 g/ha is 0%.

What about the pest or weed control at 125 g/ha [3, 11] of the same molecule?
The pest or weed control at 125 g/ha was 0%.

What about the pest or weed control at 500 g/ha [3, 12] of the same molecule?
The pest or weed control at 500 g/ha was 0%.

What about the pest or weed control at 125 g/ha [4, 13] of the same molecule?
The pest or weed control at 125 g/ha was 0%.

What about the pest or weed control at 500 g/ha [4, 14] of the same molecule?
Its pest or weed control at 500 g/ha is 0%.

What about the pest or weed control at 125 g/ha [5, 15] of the same molecule?
The pest or weed control at 125 g/ha was 0%.

And the pest or weed control at 500 g/ha [5, 16]?
Its pest or weed control at 500 g/ha is 20%.

And the plant injury at 125 g/ha [6, 17]?
Its plant injury at 125 g/ha is 0%.

And the plant injury at 500 g/ha [6, 18]?
The plant injury at 500 g/ha was 0%.

What does the source list for `CCc1cc(CC)cc([C@H]2CN(C)C(=O)[C@@H]2C(=O)Nc2ccccc2F)c1` [Compound 735]?
pest or weed control at 125 g/ha ([1]; postemergence, visual injury after approximately 10 d, 0 to 100 scale (0 no effect, 100 complete control), read-out: Plant response rating, Barnyardgrass): 90%; pest or weed control at 125 g/ha ([2]; postemergence, visual injury after approximately 10 d, 0 to 100 scale (0 no effect, 100 complete control), read-out: Plant response rating, Blackgrass): 50%; pest or weed control at 125 g/ha ([3]; postemergence, visual injury after approximately 10 d, 0 to 100 scale (0 no effect, 100 complete control), read-out: Plant response rating, Foxtail, Giant): 90%; pest or weed control at 125 g/ha ([4]; postemergence, visual injury after approximately 10 d, 0 to 100 scale (0 no effect, 100 complete control), read-out: Plant response rating, Ragweed): 0%; pest or weed control at 125 g/ha ([5]; postemergence, visual injury after approximately 10 d, 0 to 100 scale (0 no effect, 100 complete control), read-out: Plant response rating, Ryegrass, Italian): 60%; plant injury at 125 g/ha ([6]; postemergence, visual injury after approximately 10 d, 0 to 100 scale (0 no effect, 100 complete control), read-out: Plant response rating, Wheat): 50%
